Test system: HLA-A2.1 expressing cell lines presenting frameshift peptides
Assay: Cytotoxicity assay of CTL directed against cells displaying frameshift peptides
Assay type: cell-based, human
Conditions: cold targets: T2 cells pulsed with peptide, inhibitor:target ratio 50:1
Experimental: (§1) (FSP02); The antigen specificity of the FSP02 CTL line was tested in the presence of unlabeled cold targets, T2 cells pulsed with FSP02 (open squares) at an inhibitor:target ratio of 50:1. Lysis without cold targets is shown as a control (closed squares). All data are shown as the mean and standard deviation from 3 replicate wells. For experimental details see example 6.
as §1, with “(FSP06);” for “(FSP02);”, “FSP06” for “FSP02”, “pulsed either” for “pulsed”
CTL bulk cultures and/or CTL clones obtained according to the method described in Example 1 were tested for their cytotoxicity as follows:
Due to the limited amount of cell material clones were in some experiments pooled for the determination of the cytotoxicity. […]

Sequence | lysis of target cells by FSP CTL line (antigen specificity)
SLYKFSPFPL [FSP06, frameshift peptide from OGT (−1), start amino acid 128] | Frameshift peptide specific and HLA-A2-restricted lysis of target cells
RLSSCVPVA [FSP02, frameshift peptide from TGF-betaRII (−1), start amino acid 131] | Frameshift peptide specific and HLA-A2-restricted lysis of target cells

Source: patent US8821864B2, “Compounds and methods useful for detection and treatment of cancer” (Roche MTM Laboratories AG, priority 2002, dated 2014)
